Reference: US8258295B2, “Triazine derivatives, compositions containing such derivatives, and methods of treatment of cancer and autoimmune diseases using such derivatives” (Prometic Biosciences Inc., priority 2007, dated 2012)
Like-named read-outs stand apart in the source and are kept apart here.

Tests used:
[1] = test system: PC-3 human prostate carcinoma cell; assay: MTT cytotoxicity on PC-3; assay type: cell-based
Procedure: (§1) This assay was performed to determine the effect of compounds of the present invention on cell cytotoxicity. Cells were incubated in presence or absence of compounds in their respective conditioned media. After 24 hr or 72 hr incubation, 50 μl of 3-(4,5-dimethyl-2-thiazyl)-2,5-diphenyl-2H-tetrazolium bromide (MTT; 2 mg/ml) was added and further incubated for 4 hr. The supernatant was discarded and 100 μl of dimethylsulfoxide (DMSO) was added. Absorbance was read at 570 nm with a TecanSunrise ELISA plate reader. The control group consisted of cells without compounds and is referred to as 100% of viable cells. IC50 was determined using Prism software.
(§2) All compounds have weak effect on cell cytotoxicity. The predictive utility of cell based cytotoxicity assays to assess the potential in vivo anticancer activity of compounds with selected cancer cell lines is well established in the art and the use of whole cells, instead of isolated protein receptors or enzymes, provides a more reliable determination of activity. See, for example, Paull et al. (J. Nat'l Cancer Inst. 81:1088-1092, 1989); Monks et al. (J. Nat'l Cancer Inst. 83:757-766, 1991); Bandes et al. (J. Nat'l Cancer Inst. 86:770-775, 1994); and Kamate et al. (Int'l J. Cancer 100:571-579, 2002).

[2] = test system: P815 murine mastocytoma cell; assay: MTT cytotoxicity on P815; assay type: cell-based; conditions: Mus musculus
Procedure: as §1, §2

[3] = target: TNFα (Homo sapiens, UniProt P01375); assay: TNFα-induced apoptosis in WEHI-13VAR cell line; assay type: cell-based; conditions: for inhibition at 10 µM: 1 × 10^−5 M; for inhibition at 20 µM: 2 × 10^−5 M; for inhibition at 5 µM: 5 × 10^−6 M; for inhibition at 40 µM: 4 × 10^−5 M
Procedure: Effect of compounds on TNFα-induced apoptosis was measured by a standard biological assay using WEHI-13VAR cells. These cells undergo apoptosis when they are incubated in the presence of TNFα and actinomycin D. 2×10^4 WEHI-13VAR cells were incubated in RPMI supplemented with 1% sodium pyruvate and 10% FBS, overnight at 37° C. for cell adherence. The cells were then cultured in the presence of 1 μg/ml of actimomycin D ([…]) and 0.04 nM TNFα with or without compounds at 37° C. After 16 hr to 24 hr, 50 μl of a solution of 2 mg/ml of MIT was added to each well and the plate was then incubated for 4 hr at 37° C. Only viable cells metabolize MTT to form formazan salt, which is detectable by the measurement of absorbance at 570 nm. After the incubation, the plate was inverted to remove medium and dead cells. 150 μDMSO was added to each well to stop the reaction and solubilize the formazan salt. Optical density was read on a Bio-Tek EL 800 UV microplate reader. A decrease in the optical density is direct evidence of cell apoptosis induced by TNFα. Compounds were also compared to the activity of an anti-TNFα neutralizing antibody.

[4] = test system: oxazolone-induced delayed-type hypersensitivity (DTH); assay: Oxazolone-induced delayed-type hypersensitivity (DTH) in mice; assay type: in vivo
Procedure: Compounds were tested for their ability to treat oxazolone-induced delayed-type hypersensitivity (DTH) in mice. […] On day 0, day 1, and day 2, mice were treated by intravenous (IV) or oral (PO) administrations of the vehicle (control) or methotrexate (MTX; positive control/IV) or hydrocortisone (positive control/PO) or the compound at concentration lower than or equal to 50 mg/kg or as specified. Mice were challenged with an application of 50 μl of oxazolone on the surface of the right ear (first challenge, day 3; second challenge, day 10). Ear thickness was measured on day 4 to day 7, and on day 11 to 14. Redness and crust formation was also observed. Mice were sacrificed on day 14. TDTH (CD4) cells play an important role in regulating the intensity of the DTH response. Compounds may exert an inhibitory influence on the DTH response through its inhibition of T-cell activation and DNA, RNA, and/or protein synthesis.

[5] = test system: NHDF (normal human dermal fibroblast); assay: MTT cytotoxicity on NHDF; assay type: cell-based
Procedure: as §1, §2

[6] = test system: HUVEC (human umbilical vein endothelial cell); assay: MTT cytotoxicity on HUVEC; assay type: cell-based
Procedure: as §1, §2

[7] = test system: adjuvant-induced arthritis (AIA); assay: Freund's adjuvant-induced arthritis (AIA) in Lewis rats; assay type: in vivo; conditions: female Lewis rats, oral administration; FIG. 18
Procedure: AIA was induced in female Lewis rats by the injection of lyophilized Mycobacterium butyricum suspended in mineral oil into the footpad. The development of arthritis was monitored over a 3-week period post-adjuvant injection. Inflammation peaks at day 3 following the adjuvant administration. Immune activation appears around day 10 to day 16. Compounds were orally administered from day −3 to day 21. Body weight was recorded. The arthritis index, which is a measure of inflammation (edema), redness, and stiffness of the articulations, was used to monitor the development of the disease. The degree of arthritis was determined by measuring two perpendicular diameters of the ankles in the mediolateral and dorsoventral planes using a caliper. Joint circumference in millimeters is then calculated using a geometric formula.

[8] = test system: LPS-induced inflammation in the rat air-pouch model; assay: LPS-induced inflammation in rat air-pouch model; assay type: in vivo, rats; conditions: IV, pouch exudate
Text: LPS-induced inflammation in the rat air-pouch model is believed to mimic the pathological process occurring in joint diseases such as arthritis. This is because the connective tissues formed along the air pouch are similar to those found in chronic joint diseases. LPS-induced inflammation and chronic joint diseases share other features, including markedly elevated PGE2, neutrophil infiltration, cytokine formation, and tissue damage.
An air cavity was produced at day −6 by subcutaneous injection of 20 ml of sterile air into the intrascapular area of the back of male Lewis rats (175 to 200 g). An additional 10 ml of air was injected into the cavity at day −3 to keep the space open. At day 0, compounds were administered intravenously and one hour later lipopolysaccharide (LPS: 2.5 ml of 2 μg/ml in PBS) was injected into the pouch to produce an inflammatory reaction. […] The pouch fluid was collected. The volume of exudates was measured and the number of leukocytes present in the exudates was determined with a Coulter counter. The differential count was determined by Wright-Giemsa staining. PGE2, LTB4, MCP, and TNFα were determined in the pouch exudates by specific ELISAs.

[9] = 24 hr culture, read-out: IC50 of 24-hour culture PC-3
[10] = 72 hr culture, read-out: IC50 of 72-hour culture PC-3
[11] = 24 hr culture, read-out: IC50 of 24-hour culture P815
[12] = 72 hr culture, read-out: IC50 of 72-hour culture P815

Chain of TNFα (P01375 77-233 limits assumed, species assumed): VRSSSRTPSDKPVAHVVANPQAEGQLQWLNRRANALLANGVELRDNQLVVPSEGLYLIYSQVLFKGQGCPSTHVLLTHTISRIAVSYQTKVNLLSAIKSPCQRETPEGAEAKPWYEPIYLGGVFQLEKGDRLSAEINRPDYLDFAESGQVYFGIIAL

Row | SMILES | IC50 [1, 9] | IC50 [1, 10] | IC50 [2, 11] | IC50 [2, 12] | inhibition at 10 µM [3] | inhibition at 20 µM [3] | inhibition at 5 µM [3] | inhibition at 40 µM [3] | other results
1 | CN(C)S(=O)(=O)c1ccc(CCNc2nc(NCCCCCN)nc(Nc3cccc(F)c3)n2)cc1 [Compound III] | 30.1 µM | 27.6 µM | 13.6 µM | 5.5 µM | 52% | 89.7% | 20.4% |  | inflammation (ear thickness) after DTH ([4]; oral 50 mg/kg, first challenge of oxazolone): significant reduction of the inflammation; inflammation (ear thickness) after DTH ([4]; oral 50 mg/kg, second challenge of oxazolone): significant reduction of the inflammation
2 | NCCCCCNc1nc(NCCc2ccc(N)cc2)nc(Nc2ccc(F)cc2)n1 [Compound IV] | 56.6 µM | 51.9 µM | 33 µM |  | 13.1% | 31.6% | 3.7% | 47.2% | IC50 ([5]; 24 hr culture, read-out: IC50 of 24-hour culture NHDF): 82.1 µM; IC50 ([5]; 72 hr culture, read-out: IC50 of 72-hour culture NHDF): 42.5 µM; IC50 ([6]; 24 hr culture, read-out: IC50 of 24-hour culture HUVEC): 51.3 µM; IC50 ([6]; 72 hr culture, read-out: IC50 of 72-hour culture HUVEC): > 100 µM; inflammation (ear thickness) after DTH ([4]; oral 50 mg/kg, FIG. 15): significant reduction of the inflammation
3 | NCCCCNc1nc(NCCc2ccc(S(N)(=O)=O)cc2)nc(Nc2cccc(F)c2)n1 [Compound IX] |  |  |  |  | 29.8% | 46.7% | 13.2% | 65.5% | 
4 | NCCCCCNc1nc(Nc2ccc(S(N)(=O)=O)cc2)nc(Nc2cccc(F)c2)n1 [Compound VIII] | 31 µM | 5.2 µM | 10.9 µM | 2.9 µM | 35.6% | 48.1% | 17% | 55.6% | 
5 | NCCCCCNc1nc(NCCc2ccc(S(N)(=O)=O)cc2)nc(Nc2ccc(F)cc2)n1 [Compound VII] | 17.7 µM | 14.1 µM | 12.6 µM | 4 µM | 65.8% | 99.9% | 30% | 118% | 
6 | NCCCCCNc1nc(NCCc2ccc(C(N)=O)cc2)nc(Nc2cccc(F)c2)n1 [Compound VI] |  |  |  |  | 54.8% | 74.1% | 28.2% | 89.5% | 
7 | NCCCCCNc1nc(NCC(O)c2ccc(O)cc2)nc(Nc2ccc(F)cc2)n1 (stereo not shown) [Compound XI] |  |  |  |  | 14.6% | 23.7% | 9.9% | 35% | inflammation (ear thickness) after DTH ([4]; IV 25 mg/kg, first challenge of oxazolone): significant reduction of the inflammation
8 | CN(C)S(=O)(=O)c1ccc(CCNc2nc(NCCCCCN)nc(Nc3ccc(F)cc3)n2)cc1 [Compound X] |  |  |  |  | 44.4% | 79.9% | 19.4% | 53.9% | inflammation (ear thickness) after DTH ([4]; IV 5 mg/kg, first challenge of oxazolone): significant reduction of the inflammation
9 | NCCCCCNc1nc(Nc2cccc(F)c2)nc(-c2cccc(F)c2)n1 [XII] |  | 9 µM |  | 21.7 µM |  |  |  |  | 
10 | COc1ccc2c(c1)c(CC(=O)O)c(C)n2C(=O)c1ccc(Cl)cc1 [indomethacin, reference compound] |  |  |  |  |  |  |  |  | severity of arthritis (inflammatory index) [7]: significant reduction in the severity of arthritis; PGE2 production induced by LPS ([8]; twelve hours after induction, FIG. 21B): significant inhibition; TNFα production induced by LPS ([8]; twelve hours post-LPS induction, FIG. 21A): weak inhibition; TNFα production induced by LPS ([8]; two hours after induction, FIG. 20A): increase the concentration of TNFα; PGE2 production induced by LPS ([8]; two hours after induction, FIG. 20B): significant inhibition; LTB4 production induced by LPS ([8]; two hours after induction, FIG. 20C): did not affect the production of LTB4; MCP-1 production induced by LPS ([8]; two hours after induction, FIG. 20D): significant increase
